This note sets out measurements from ChEMBL document CHEMBL4145634, “Discovery of Janus Kinase 2 (JAK2) and Histone Deacetylase (HDAC) Dual Inhibitors as a Novel Strategy for the Combinational Treatment of Leukemia and Invasive Fungal Infections” (J Med Chem, 2018).

Converted amounts (≈) assume the structure as drawn. The source made the active and inactive calls. The calls are words filed in the database; no cut-off is given here.

Data set [1] relates to Mus musculus. Kind of data set: In vivo antifungal activity against FLC resistant Candida albicans 0304103 infected in ICR mouse assessed as mouse survival at 1 mg/kg, ip qd up to 20 days (reference value: 4.5 day). The data set is classed as functional.
Data set [2] concerns Candida albicans. Nature of the data set: microbe, parasite or virus in culture. Format: functional. Conditions: Candida albicans, 0304103, 48 h.
Description: Antifungal activity against FLC resistant Candida albicans 0304103 after 48 hrs by checkerboard microdilution method
Data set [3] relates to Candida albicans. Nature of the data set: Antifungal activity against FLC resistant Candida albicans 100 after 48 hrs by checkerboard microdilution method. Format: functional. Conditions: Candida albicans, 100, 48 h.
Data set [4] relates to Candida albicans. Kind of data set: microbe, parasite or virus in culture. Format: functional. Conditions: Candida albicans, 0710922, 48 h.
Description: Antifungal activity against FLC resistant Candida albicans 0710922 after 48 hrs by checkerboard microdilution method
Data set [5] relates to Candida albicans. Nature of the data set: Antifungal activity against FLC resistant Candida albicans 0304103 at 1 ug/ml up to 24 hrs by checkerboard microdilution method. Format: functional, organism-based. For orientation: Broth dilution looks for growth in wells or tubes with falling amounts of substance.
In data set [6] the test system is Mus musculus. Kind of data set: In vivo antifungal activity against FLC resistant Candida albicans 0304103 infected in ICR mouse assessed as mouse survival at 5 mg/kg, ip qd up to 20 days (reference value: 4.5 day). Format: functional, organism-based.
Data set [7] relates to K562. Nature of the data set: Antiproliferative activity against human K562 cells after 48 hrs in presence of JAK2 inhibitor CYT-387 by CCK-8 assay. Format: functional, cell-based. Conditions: K562, 48 h. A general note: Tetrazolium dyes change colour on reduction, which living cells bring about.
The subject of data set [8] is HEL. Kind of data set: Cell cycle arrest in human HEL cells assessed as accumulation at G1 phase at 1 to 10 uM after 48 hrs propidium iodide staining based flow cytometry. The data set is classed as functional. A general note: Flow cytometry measures light scatter and fluorescence of single cells or particles in a stream.
Data set [9] has as its system HEL. Kind of data set: Antiproliferative activity against human HEL cells after 48 hrs in presence of JAK2 inhibitor CYT-387 by CCK-8 assay. Format: functional, cell-based.
Data set [10] concerns Mus musculus. Nature of the data set: In vivo antifungal activity against FLC resistant Candida albicans 0304103 infected in ICR mouse assessed as mouse survival at 5 mg/kg, ip qd up to 20 days in co-treated with 1 mg/kg, ip qd fluconazol (reference value: 4.5 day). Format: functional.
In data set [11] the test system is HL-60. Nature of the data set: Antiproliferative activity against human HL60 cells after 48 hrs by CCK-8 assay. Conditions: HL-60, 48 h. Format: functional, cell-based.
The test system of data set [12] is K562. Kind of data set: Antiproliferative activity against human K562 cells after 48 hrs by CCK-8 assay. Format: functional, cell-based. Conditions: K562, 48 h.
In data set [13] the test system is HEL. Kind of data set: Antitumor activity in human HEL cells xenografted in SCID mouse assessed as mouse survival time at 10 mg/kg, ip qd. Format: functional.
Data set [14] relates to HL-60. Nature of the data set: Antiproliferative activity against human HL60 cells after 48 hrs in presence of JAK2 inhibitor CYT-387 by CCK-8 assay. Format: functional, cell-based. Conditions: HL-60, 48 h.
The subject of data set [15] is Mus musculus. Kind of data set: Protection against spleen enlargement in SCID mouse xenografted with human HEL cells at 10 mg/kg, ip qd. Format: functional, organism-based.
The test system of data set [16] is HEL. Kind of data set: Antitumor activity against human HEL cells xenografted in BALB/C nude mouse assessed as tumor growth inhibition at 10 mg/kg, ip bid treated for 21 consecutive days relative to control. Format: functional. Conditions: read-out: TGI.
In data set [17] the test system is HEL. Kind of data set: Antiproliferative activity against human HEL cells after 48 hrs by CCK-8 assay. Format: functional, cell-based.
Data set [18] relates to HEL. Kind of data set: Cell cycle arrest in human HEL cells assessed as accumulation at G1 phase at 1 to 5 uM after 48 hrs propidium iodide staining based flow cytometry. Format: functional.
Data set [19] has as its system HEL. Nature of the data set: Antitumor activity in human HEL cells xenografted in SCID mouse assessed as mouse survival at 10 mg/kg, ip qd measured after 10 days. The data set is classed as functional, organism-based.
Data set [20] deals with Mus musculus. Kind of data set: Toxicity in BALB/C nude mouse xenografted with human HEL cells assessed as reduction in body weight at 10 mg/kg, ip bid treated for 21 consecutive days. Format: organism-based. Conditions: in vivo.
Data set [21] deals with HEL. Kind of data set: Antitumor activity against human HEL cells xenografted in BALB/C nude mouse assessed as tumor growth at 10 mg/kg, ip bid treated for 21 consecutive days relative to control. The data set is classed as functional.
The subject of data set [22] is Mus musculus. Kind of data set: Toxicity in BALB/C nude mouse xenografted with human HEL cells at 10 mg/kg, ip bid treated for 21 consecutive days. Format: organism-based. Conditions: in vivo.
In data set [23] the test system is HEL. Kind of data set: Induction of apoptosis in human HEL cells at 10 uM after 48 hrs by Annexin-V-FITC/propidium iodide staining based flow cytometry relative to control. The data set is classed as functional.
The subject of data set [24] is Candida albicans. Nature of the data set: Synergistic antifungal activity against FLC resistant Candida albicans 100 assessed as FIC index after 48 hrs by checkerboard microdilution method. Format: functional.
In data set [25] the test system is Candida albicans. Nature of the data set: microbe, parasite or virus in culture. The data set is classed as functional. Conditions: Candida albicans, 0304103, 48 h. The source holds these as a separate data set.
Description: Antifungal activity against FLC resistant Candida albicans 0304103 after 48 hrs in presence of fluconazol by checkerboard microdilution method
Data set [26] concerns Candida albicans. Nature of the data set: Antifungal activity against FLC resistant Candida albicans 100 after 48 hrs in presence of fluconazol by checkerboard microdilution method. The data set is classed as functional. Conditions: Candida albicans, 100, 48 h.
Data set [27] concerns Candida albicans. Kind of data set: Synergistic antifungal activity against FLC resistant Candida albicans 0304103 assessed as FIC index after 48 hrs by checkerboard microdilution method. Format: functional.
The test system of data set [28] is Candida albicans. Kind of data set: Synergistic antifungal activity against FLC resistant Candida albicans 0710922 assessed as FIC index after 48 hrs by checkerboard microdilution method. Format: functional.
Data set [29] concerns Candida albicans. Nature of the data set: microbe, parasite or virus in culture. Format: functional. Conditions: Candida albicans, 0304103, 48 h. The source holds these as a separate data set.
Description: Antifungal activity against FLC resistant Candida albicans 0304103 assessed as fluconazol MIC50 after 48 hrs by checkerboard microdilution method
For data set [30], the system named is Candida albicans. Nature of the data set: microbe, parasite or virus in culture. The data set is classed as functional. Conditions: Candida albicans, 100, 48 h.
Description: Antifungal activity against FLC resistant Candida albicans 100 assessed as fluconazol MIC50 after 48 hrs by checkerboard microdilution method
For data set [31], the system named is Candida albicans. Nature of the data set: microbe, parasite or virus in culture. Conditions: Candida albicans, 0710922, 48 h. The data set is classed as functional. The source holds these as a separate data set.
Description: Antifungal activity against FLC resistant Candida albicans 0710922 assessed as fluconazol MIC50 after 48 hrs by checkerboard microdilution method
The test system of data set [32] is Candida albicans. Nature of the data set: microbe, parasite or virus in culture. Format: functional. Conditions: Candida albicans, 0710922, 48 h. The source holds these as a separate data set.
Description: Antifungal activity against FLC resistant Candida albicans 0710922 after 48 hrs in presence of fluconazol by checkerboard microdilution method

`OC(Cn1cncn1)(Cn1cncn1)c1ccc(F)cc1F` [FLUCONAZOLE]: the MST with Mus musculus [1] is 7.5 days. For the same molecule, the MIC50 with Candida albicans [2], in the data set with Candida albicans [3] and in the data set with Candida albicans [4] was more than 64 µg/mL each time. For the same molecule, the result in the data set with Candida albicans [5] was inactive.

As usually defined, the IC50 is the concentration needed to halve the response being measured. `O=C(CCCCCCNC(=O)c1cnc(N(c2ccccc2)c2ccccc2)nc1)NO` [RICOLINOSTAT]: the result with Mus musculus [6], in the data set with HEL [13] and with Mus musculus [15] was inactive. Also, the MIC50 with Candida albicans [2], in the data set with Candida albicans [3] and against Candida albicans [4] was more than 64 µg/mL throughout. Also, the IC50 lay within 2.54 to 8.55 µM with K562 [7]; 2.54 to 8.55 µM in the data set on HEL [9]; 3.75 to 23.9 µM in the data set with HL-60 [11]; 3.75 to 23.9 µM in the data set with K562 [12]; 2.54 to 8.55 µM in the data set on HL-60 [14]; 3.75 to 23.9 µM with HEL [17]. Besides, the outcome in the data set with HEL [8] was Active. Moreover, the MST with Mus musculus [10] turned out to be 5 days. In addition, in the data set on HEL [16], the inhibition in vivo at 10 mg/kg came out at 14.1%.

As for `Nc1cc(F)ccc1NC(=O)/C=C/c1cnn(C/C=C/c2ccccc2)c1`, the outcome with Mus musculus [6], with HEL [13] and in the data set on Mus musculus [15] was inactive. The MIC50 against Candida albicans [2], in the data set with Candida albicans [3] and against Candida albicans [4] was more than 64 µg/mL in each case. The IC50 in the data set with K562 [7] was 1.64 to 4.19 µM; in the data set with HEL [9], 1.64 to 4.19 µM; in the data set with HL-60 [11] it was 21.7 to 33.6 µM; in the data set with K562 [12], 21.7 to 33.6 µM; in the data set on HL-60 [14], 1.64 to 4.19 µM; in the data set on HEL [17] it was 21.7 to 33.6 µM. The MST in the data set with Mus musculus [10] was determined as 5 days. Further, the inhibition in vivo at 10 mg/kg with HEL [16] was found to be 16.4%.

As for `CN1CCc2c(c3ccccc3n2Cc2ccc(C(=O)NO)cc2)C1` [TUBASTATIN A], the outcome in the data set with Mus musculus [6], with HEL [13] and with Mus musculus [15] was inactive. Besides, the MIC50 against Candida albicans [2], in the data set with Candida albicans [3] and against Candida albicans [4] was more than 64 µg/mL throughout. Moreover, the IC50 in the data set with K562 [7] fell in the range of 2.54 to 8.55 µM; with HEL [9], 2.54 to 8.55 µM; with HL-60 [11] it was 3.75 to 23.9 µM; in the data set on K562 [12], 3.75 to 23.9 µM; with HL-60 [14], 2.54 to 8.55 µM; in the data set on HEL [17], 3.75 to 23.9 µM. In addition, the MST with Mus musculus [10] came out at 4.5 days. In the data set with HEL [18], the outcome was Active. Besides, the inhibition in vivo at 10 mg/kg in the data set on HEL [16] is 18.8%.

As a reminder, the T/C is the result in the treated group divided by that in the control group, in per cent. As for `O=C(CCCCCCC(=O)Nc1ccccc1)NO` [VORINOSTAT], the outcome in the data set with HEL [19] and with Mus musculus [15] was inactive. The MST in the data set on Mus musculus [10] was determined as 10 days. For the same molecule, the Activity entry in the data set with Mus musculus [20] and with Mus musculus [22] was “Non-Toxic” in each case. Further, the T/C in the data set on HEL [21] came out at 87.9%. Further, the IC50 with K562 [12] is 7.7 µM.

For `N#CCNC(=O)c1ccc(-c2ccnc(Nc3ccc(N4CCOCC4)cc3)n2)cc1` [MOMELOTINIB], the outcome with HEL [19] and in the data set with Mus musculus [15] was inactive. The Activity in the data set with HEL [23] is reported as 25.9%; in the data set with Mus musculus [20], “Non-Toxic”; in the data set with Mus musculus [22], “Non-Toxic”. Further, the MIC50 with Candida albicans [2], with Candida albicans [3], against Candida albicans [25], in the data set on Candida albicans [4], with Candida albicans [26] and in the data set with Candida albicans [29] was more than 64 µg/mL in each case. Moreover, the MIC50 is more than 64 µg/mL against Candida albicans [30], 64 µg/mL (≈ 154 µM) in the data set with Candida albicans [31] and 64 µg/mL (≈ 154 µM) with Candida albicans [32]. Further, the “fractional inhibitory concentration index (FICI)” value in the data set on Candida albicans [24] was more than 2; with Candida albicans [27] it was more than 2; with Candida albicans [28], 2. Further, in the data set with Mus musculus [10], the MST came out at 5.5 days. The half-maximal inhibitory concentration (IC50) with HL-60 [11] is 8.3 µM; with K562 [12], 6.5 µM; in the data set with HEL [17], 2.3 µM. In addition, in the data set on HEL [21], the T/C was 68.3%. Besides, the inhibition in vivo at 10 mg/kg in the data set with HEL [16] is 40.2%.
